Measurements from patent publication US6409810B1, “Water-soluble trisazo compounds, aqueous ink composition and colored article” (Nippon Kayaku Kabushiki Kaisha, priority 1997, dated 2002).

Assays:
Format in all cases: physicochemical
[1] = Test for resistance to light of the recorded images (carbon arc fade meter, Blue Scale JIS L-0841); conditions: 20 hours carbon arc fade meter; for light fastness (rank) ink jet paper A: ink jet print on ink jet paper A (Color BJ Paper LC 101, Canon); for light fastness (rank) ink jet paper B: ink jet print on ink jet paper B (coated paper STX73 A4, Sharp); for light fastness (rank) plain paper: ink jet print on plain paper (Canon TLB5A4S)
Protocol: (§1) A liquid having the following formulation was prepared and passed through a 0.45 μm membrane filter to obtain an aqueous ink composition for ink jet printers.
(§2) An ink jet recording was conducted on three different papers, i.e. plain papers (Canon printer paper A4 (TLB5A4S)), ink jet papers A (Color BJ Paper LC 101; ex. Canon) and ink jet papers B (coated papers for ink jet printer STX73 A4; ex. Sharp) by means of an ink jet printer (trade name NOVA JET III; ex. ENCAD). The thus-recorded images were tested with respect to the resistances to light and water and a color rendering property.
The recorded images were irradiated with light for 20 hours by means of a carbon arc fade meter (ex. SUGA Shikenkisha). Light fastness was judged according to the Blue Scale for light resistance standard as defined in JIS L-0841.

[2] = Test for resistance to water of the recorded images (immersion in water, visual examination of dropout); design: key to water fastness plain paper: ∘: Less amount of the compound was dropped out.; Δ: About half of the compound was dropped out.; X: Large amount of the compound was dropped out; conditions: immersed in water 2 minutes with mild stirring, dried; for water fastness ink jet paper A: ink jet print on ink jet paper A; for water fastness ink jet paper B: ink jet print on ink jet paper B; for water fastness plain paper: ink jet print on plain paper
Protocol: as §1, §2
Test specimen was immersed in water contained in a beaker with mild stirring for 2 minutes and dried. Amount of the compound was observed by the visual examination before and after the immersion, and dropout of the compound was judged.

[3] = Color rendering property (hue change under tungsten light versus standard light source, visual); design: key: ∘: Change in hue was small.; Δ: Change in hue was somewhat large.; X: Change in hue was large; conditions: hue change under tungsten light compared with standard light source
Protocol: as §1, §2
Discoloration was judged by the visual examination by comparing the hue change under the tungsten light with that under the standard light source.

Compound | light fastness (rank) ink jet paper A [1] | light fastness (rank) ink jet paper B [1] | light fastness (rank) plain paper [1] | water fastness ink jet paper A [2] | water fastness ink jet paper B [2] | water fastness plain paper [2] | color rendering property [3]
COc1cc(N=Nc2cc(S(=O)(=O)O)cc3cc(S(=O)(=O)O)cc(O)c23)c(C)cc1N=Nc1c(S(=O)(=O)O)cc2ccc(N=Nc3cc(S(=O)(=O)O)c(N)cc3N)cc2c1O [compound 0005] | 4-5 rank | 5 rank | 5 rank | ◯ | ◯ | Δ˜◯ | ◯
COCCOc1cc(N=Nc2cc(S(=O)(=O)O)cc3cc(S(=O)(=O)O)cc(O)c23)c(N)cc1N=Nc1c(S(=O)(=O)O)cc2ccc(N=Nc3cc(S(=O)(=O)O)c(N)cc3N)cc2c1O [compound 0051] | 4 rank | 5 rank | 4-5 rank | ◯ | ◯ | ◯ | ◯
COCCOc1cc(N=Nc2cc(S(=O)(=O)O)cc3cc(S(=O)(=O)O)cc(O)c23)c(NC(C)=O)cc1N=Nc1c(S(=O)(=O)O)cc2ccc(N=Nc3cc(S(=O)(=O)O)c(N)cc3N)cc2c1O [compound 0022] | 5 rank | 5 rank | 5 rank | ◯ | ◯ | Δ˜◯ | ◯
COc1cc(N=Nc2cc(S(=O)(=O)O)cc3cc(S(=O)(=O)O)cc(O)c23)c(NC(C)=O)cc1N=Nc1c(S(=O)(=O)O)cc2cc(S(=O)(=O)O)c(N=Nc3ccc(O)cc3O)cc2c1O [compound 0232] | 4 rank | 4 rank | 4 rank | ◯ | ◯ | Δ˜◯ | ◯
COc1cc(N=Nc2cc(S(=O)(=O)O)cc3cc(S(=O)(=O)O)cc(O)c23)c(NC(C)=O)cc1N=Nc1c(S(=O)(=O)O)cc2ccc(N=Nc3ccc(O)cc3O)cc2c1O [compound 0012] | 3-4 rank | 4 rank | 4-5 rank | ◯ | ◯ | Δ | ◯
Nc1cc2c(O)c(N=Nc3ccc(N=Nc4ccc(S(=O)(=O)[O-])cc4)c4ccc(S(=O)(=O)[O-])cc34)c(S(=O)(=O)[O-])cc2cc1S(=O)(=O)[O-].[Na+].[Na+].[Na+].[Na+] [compound 1, C.I. Food Black 2, reference compound] | 3 rank | 4-5 rank | 4-5 rank | ◯ | – | – | Δ
Nc1cc(N)c(S(=O)(=O)O)cc1N=Nc1ccc2cc(S(=O)(=O)O)c(N=Nc3ccc(N=Nc4cc(S(=O)(=O)O)cc5cc(S(=O)(=O)O)cc(O)c45)c4ccc(S(=O)(=O)O)cc34)c(O)c2c1 [compound 0027] | 4 rank | 5 rank | 5 rank | ◯ | ◯ | x˜Δ | ◯
COCCOc1cc(N=Nc2cc(S(=O)(=O)O)cc3cc(S(=O)(=O)O)cc(O)c23)c(NC(C)=O)cc1N=Nc1c(S(=O)(=O)O)cc2ccc(N=Nc3ccc(N)cc3O)cc2c1O [compound 0020] | 4 rank | 5 rank | 4-5 rank | ◯ | ◯ | Δ˜◯ | ◯
